Results on 10 molecules are retold here after patent US10981957B2, “Peptides having antimicrobial activity and new enzyme capable of converting L-configured residue in D-configured amino acid in a peptide” (INSTITUT NATIONAL DE RECHERCHE POUR L'AGRICULTURE, …, priority 2015, dated 2021).

Like-named read-outs stand apart in the source and are kept apart here. Square brackets hold non-standard residues; d marks the D form. Ends that are not written are not given here. Peptide text beside a SMILES is read from it. d(aIle) = CC[C@H](C)[C@@H](N)C(=O)O Some results are limits rather than exact numbers.

In assay [1] the test system is B. subtilis. As to the kind of experiment: Inhibition assay on solid medium (plate growth inhibition assay). The assay is classed as cell-based, Bacillus subtilis. As to conditions: 200 μg of peptide spotted, 37° C., FIG. 5A. An excerpt:
(§1) FIG. 5—Activity of YydF18-49 of YydG. (FIG. 5A) Plate growth inhibition assay of B. subtilis in the presence of YydF18-49 or the epimierized product YydFb. (FIG. 5B) Growth of Bacillus subtilis in LB medium in the absence of peptide (□) or in the presence of the YydF18-49 peptide with a free C-terminus: Ac-[…] (SEQ ID No 20) containing either no modification (▪), a D-allo-lle (♦), a D-Val (⋄) or two-epimerized residues: Ac-GLLDESQKLAKVNDLWYF{d-V}KSKENRW{d-I}LGSGH (SEQ ID No 20) (▴). The OD values are the means of 3 independent cultures.
Inhibition Assay on Solid Medium
An overnight culture of the bacterial strain to be assayed was freshly inoculated to sterile BHI liquid medium. After 4 hours of bacterial growth at 37° C., the medium was diluted to 1/1000 and inoculated into a soft agarose medium pre-heated at 42° C. The agarose medium containing bacteria was overlaid on a previously jellified sterile BHI agarose layer. 200 μg of peptide was spotted onto the plate and bacterial growth proceeded at 37° C.

In assay [2] the test system is B. subtilis. The assay is classed as cell-based, Bacillus subtilis. As to conditions: for Growth of B. subtilis in liquid LB medium: OD at 600 nm, FIG. 5B, FIG. 8a.
Text: as §1
FIG. 8—(A) Growth of B. subtilis in liquid LB medium in the presence of YydF33-49 or YydF33-49DD. B. subtilis was grown in LB medium alone (♦), in the presence of YydF33-49 (□) (SEQ ID NO: 76, top) or YydF33-49DD (▪) (SEQ ID NO: 75, bottom). Each measurement is the mean of three growth experiments with the SD indicated. The epimerized residues are in black. (b) Growth ratio of B. subtilis in presence of YydF18-49 (100 μM) or YydF18-49DD (100, 10 or 1 μM). Ratios were determined by comparison with growth in the absence of peptide. (c) Growth ratio of B. subtilis in presence of YydF33-49 or YydF33-49DD (100, 10, 1, 0.1 or 0.01 μM). Ratios were determined by comparison with bacterial growth in the absence of peptide.
FIG. 9—Growth of B. subtilis in liquid LB medium in the presence of YydF18-49 (□) or after addition (arrow) of the YydF18-49DD (▪) after 3 hours of growth. Each measurement is the mean of three growth experiments with the SD indicated.
FIG. 10—Growth of B. subtilis in liquid LB medium in the presence of […] (a), YydF33_49AA (b) (SEQ ID NO: 66), YydF33_49vv (c) (SEQ ID NO: 67), YydF33_49II (d) (SEQ ID NO: 68), Peptide-SA1 (e) (SEQ ID NO: 62), Peptide-SA2 (f) (SEQ ID NO: 63), Peptide-SE (g) (SEQ ID NO: 64) or Peptide-SP (h) (SEQ ID NO: 65) at 100 μM. In bold, epimerized residues.
(§2) Inhibition Assay on Liquid Medium
(§3) An overnight culture of the bacterial strain to be assayed was freshly inoculated to sterile LB liquid medium. After 4 hours of bacterial growth at 37° C., the medium was diluted to 1/10,000 and inoculated into sterile liquid LB or BHI medium. Peptide solution was added ( 1/100) to a final concentration ranging from 0.01 to 100 μM and OD at 600 nm was recorded continuously using a Tecan microplate reader (Infinite® 200 PRO series).

Another assay concerns Streptococcus agalactiae. As to the kind of experiment: Inhibition assay on liquid medium, Streptococcus agalactiae in BHI medium. The assay is classed as cell-based. The settings on record: peptide at 100 μM; FIG. 12. Here is the method:
FIG. 12—Growth of Streptococcus agalactiae in liquid BHI medium in the presence of YydF33-49 (a), YydF33_49AA (b) (SEQ ID NO: 66), YydF33_49VV (c) (SEQ ID NO: 67), YydF33_49II (d) (SEQ ID NO: 68), Peptide-SA1 (e) ([…]), Peptide-SA2 (f) (SEQ ID NO: 63), Peptide-SE (g) (SEQ ID NO: 64) or Peptide-SP (h) (SEQ ID NO: 65) at 100 μM. In bold, epimerized residues.
as §2, §3

For the next assay, the system named is Enterococcus faecalis. As to the kind of experiment: Inhibition assay on liquid medium, Enterococcus faecalis in BHI medium. The assay is classed as cell-based. As to conditions: peptide at 100 μM; FIG. 11. The method, then:
FIG. 11—Growth of Enterococcus faecalis in liquid BHI medium in the presence of YydF33-49 (a), YydF33_49AA (b) (SEQ ID NO: 66), YydF33_49VV (c) (SEQ ID NO: 67), YydF33_49II (d) (SEQ ID NO: 68), Peptide-SA1 (e) (SEQ ID NO: 62), Peptide-SA2 (f) (SEQ ID NO: 63), Peptide-SE (g) (SEQ ID NO: 64) or Peptide-SP (h) (SEQ ID NO: 65) at 100 μM. In bold, epimerized residues.
as §2, §3

On to “Ac-GLLDESQKLAKVNDLWYF{d-V}KSKENRW{d-I}LGSGH [YydF18-49DD]”, for which the “inhibition growth of B. subtilis (plate growth inhibition assay)” value with B. subtilis [1] is recorded as “strong inhibition growth”. For the same molecule, the “Growth of B. subtilis in liquid LB medium” value (“Growth … in liquid LB medium” below) in the assay on B. subtilis [2] was “bacterial growth inhibition”; in the assay with B. subtilis [2] (listed as epimerized peptide), “strong and persistent inhibition”.

“WYFIKSKENRWILGSGH (also: epimerized D-residues, positions not given here) [YydF33-49II]”: in the assay with Streptococcus agalactiae, the “Growth of Streptococcus agalactiae in liquid BHI medium” value (from here on “Growth of Streptococcus agalactiae”) is reported as “not”.

Consider WYFAKSKENRWALGSGH (YydF33_49AA), for which the “Growth of Enterococcus faecalis in liquid BHI medium” value (“Growth of Enterococcus faecalis” for short) with Enterococcus faecalis was “totally inhibited”. In addition, the “Growth of Streptococcus agalactiae” value in the assay on Streptococcus agalactiae was “inhibited”.

On to WYFVRSSKNRWVAGSAH (Peptide-SA1), for which the “Growth of Enterococcus faecalis” value in the assay with Enterococcus faecalis was “significantly delayed”. Further, in the assay with Streptococcus agalactiae, the “Growth of Streptococcus agalactiae” value is “inhibitors”.

Regarding WYFVKSKENRWILGSGH [YydF33-49], in the assay with B. subtilis [2], the “Growth … in liquid LB medium” value was “Only the YYdF33-49DD peptide proved to inhibit bacterial growth”.

As to “WYFVKSKENRWVLGSGH (also: epimerized D-residues, positions not given here) [YydF33-49VV]”, the “Growth of Streptococcus agalactiae” value in the assay with Streptococcus agalactiae is listed as “inhibited”.

`CC[C@H](C)[C@@H](NC(=O)[C@H](Cc1c[nH]c2ccccc12)NC(=O)[C@H](CCCNC(=N)N)NC(=O)[C@H](CC(N)=O)NC(=O)[C@H](CCC(=O)O)NC(=O)[C@H](CCCCN)NC(=O)[C@H](CO)NC(=O)[C@H](CCCCN)NC(=O)[C@H](NC(=O)[C@H](Cc1ccccc1)NC(=O)[C@H](Cc1ccc(O)cc1)NC(=O)[C@@H](N)Cc1c[nH]c2ccccc12)C(C)C)C(=O)N[C@@H](CC(C)C)C(=O)NCC(=O)N[C@@H](CO)C(=O)NCC(=O)N[C@@H](Cc1c[nH]cn1)C(=O)O` [YydF33-49DD] (H-WYF[dV]KSKENRW[d(aIle)]LGSGH-OH; N-terminus and C-terminus assumed): in the assay with Streptococcus agalactiae, the “Growth of Streptococcus agalactiae” value is listed as “inhibited”. Besides, in the assay with B. subtilis [2], the MIC is under 1 µM and the “Growth … in liquid LB medium” value is listed as “inhibit bacterial growth”.

Regarding WYFVKSKQNRWVVGSGH (Peptide-SE), in the assay with Enterococcus faecalis, the “Growth of Enterococcus faecalis” value is “totally inhibited”. Besides, the “Growth of Streptococcus agalactiae” value with Streptococcus agalactiae is recorded as “inhibitors”.

As for WYFVRNSKNRWVAGSAH (Peptide-SA2), in the assay with Enterococcus faecalis, the “Growth of Enterococcus faecalis” value is on record as “significantly delayed”. Further, the “Growth of Streptococcus agalactiae” value with Streptococcus agalactiae is “inhibitors”.

As for “Ac-GLLDESQKLAKVNDLWYFVKSKENRWILGSGH [YydF18-49]”, in the assay on B. subtilis [1], the “inhibition growth of B. subtilis (plate growth inhibition assay)” value is given as “devoid of activity”. The “cell density after addition of peptide at mid-exponential phase” value in the assay with B. subtilis [2] (B. subtilis, liquid LB medium, peptide added after 3 hours of growth, FIG. 9) was “a clear slow down followed by a decrease of the cell density”.
